Tests used:
[1] = test system: Abp1 PPIs; experiment: DHFR-PCA of Abp1 SH3-swapped baits (Fig. 2B-D, S2C, S2F); format: cell-based, Saccharomyces cerevisiae; conditions: number of interactions of Abp1 carrying the named SH3; sheet FigS2A-B
Excerpt: Having determined that multiple PPIs require SH3s, we asked whether the latter establish PPI specificity independently from their host proteins by swapping domains (Fig. 2A). Using the second round of genome editing, we individually replaced Abp1 SH3 with the 27 yeast SH3s and 3 human Abp1 orthologs’ SH3s (CTTN, HCLS1, and DBNL, Fig. 2B). The reintroduction of its own SH3 (Abp1SH3 in Abp1) reconstitutes almost perfectly Abp1’s interaction profile (Kendall’s τ = 0.93, Fig. 2B). […] No homologous SH3 domain fully re-establishes the normal Abp1 PPI profile (Fig. 2B and Supplementary Fig. 2C). However, we observe a significant correlation (cophenetic correlation = 0.20, p value = 0.005, Fig. 2C) between the similarity of PPI profiles (Fig. 2B) and the sequence similarity of the SH3s. […] Nonetheless, a subset of SH3-dependent PPIs is only observed with the endogenous domain. For instance, Hua2 and App1, both well-characterized partners of Abp1[14],[18],[19], are only detected when Abp1 contains its own SH3 (WT or swapped via editing). A given SH3 may therefore not be fully replaceable with other paralogous or orthologous domains. This pattern is confirmed by cellular growth phenotypic analyses (Supplementary Fig. 2D, E). PPIs, SH3 sequence similarity, and growth profiles under stress conditions are correlated (Supplementary Fig. 2D, E). This relationship is particularly clear when analyzing growth on media supplemented with hygromycin.
The stuffing of YSC84 SH3 rendered the strain sterile and was therefore not used for this study as the assays require crosses. For genes containing two SH3s (BZZ1 and BEM1), a combination of this first stuffer with a second one ([…]) coding for a highly similar linker ([…]) was used, which allowed targeting each SH3 position independently. The two N-terminal domains of SLA1, which are separated by six nucleotides, were stuffed by a single stuffer. Cells containing pCAS were selected via the G418 resistance cassette from the plasmid on YPD plates (YPD + NAT 100 μg/ml (DHFR F[1,2] selection) + G418 200 µg/mL (Bioshop Canada)). Colonies were randomly selected and grown in YPD media without G418 to allow plasmid loss. The correct insertion of the stuffer was validated by PCR and Sanger sequencing. The SH3-swapped, -shuffled, and -mutated strains were constructed following a second CRISPR–Cas9 editing step with the same procedures. The stuffer sequences were targeted by specific gRNAs (one gRNA per stuffer) and replaced by PCR amplified specific SH3 (with 40 bp homology arms) or libraries of mutated SH3 domains for Deep Mutational Scanning (DMS) with 78 bp flanking homology regions. Validation of the SH3 domain insertions was done as we previously described except for DMS libraries (see below).
The overall DHFR-PCA pipeline is based on Tarassov et al.[43] and the procedures have also been published as a visualized protocol. The screens were performed with robotically manipulated pin tools (BM5-SC1, S&P Robotics Inc.). First, the preys were cherry-picked from 96-well plates to omnitrays in a 384 format on YPD + HPH solid media. Plates were then combined into the 1536 format on YPD + HPH. The array was constituted of 575 preys previously shown to interact physically with at least one SH3-containing protein as reported in BioGRID V3.4.16 along with 40 negative controls. The prey array comprised a border of control strains of two rows and two columns corresponding to the PPI between LSM8-DHFR F[1,2] and CDC39-DHFR F[3]. This double border was used to remove border effects. Preys are present in duplicate at a randomized position in the 1536 array (except for YAL041W which is present four times per array). Baits were crossed with two prey plates, resulting in four independent bait–prey tests for each PPI. Baits were grown in liquid YPD + NAT and then transferred on solid YPD + NAT omnitrays. They were then replicated on YPD + NAT omnitrays in 1536 array format. […]

[2] = test system: Abp1 (1xFLAG); experiment: Western blot expression level of Abp1 SH3-swapped baits (Fig. S2A-B); format: cell-based, Saccharomyces cerevisiae; design: Flag (2 bands): unit not given here; conditions: sheet FigS2A-B; for Ratio Swap/WT Flag: Flag signal relative to Abp1 WT (Abp1-1 to Abp1-4 = 1); for Flag (2 bands): Western blot Flag signal (2 bands), Abp1 WT, SH3-deleted or SH3-swapped
Procedure: Precultures of yeast cells expressing baits fused with the DHFR F[1,2]-FLAG were grown overnight at 30 °C with agitation in synthetic complete medium. The next day, cells were expanded in synthetic complete medium to reach their exponential phase (OD600 of around 1.0), pelleted, and frozen at −80 °C. The equivalent of fifty OD600 of cells was resuspended in ice-cold yeast lysis buffer (10 mM Tris-HCl pH 7.4, 150 mM NaCl, 0.5 mM EDTA (Millipore Sigma), 1% Triton X-100 (Millipore Sigma), and one cOmplete Mini Protease Inhibitor Cocktail (Millipore Sigma) per 10 mL) with […] glass beads (Millipore Sigma) and disrupted at 4 °C by 10 cycles of 2 min vortexing and 2 min cooldown. The equivalent of […] of lysed cells was used for the immunoprecipitation of the bait proteins using FLAG-M2 agarose beads (Millipore Sigma). The beads were incubated with the cell lysates for 120 min at 4 °C with a slow rotation, followed by three washes with the yeast lysis buffer.
Protein extracts and affinity-purified baits from yeast and human lysed cells were migrated on 10% polyacrylamide gels. The separated proteins were then transferred to nitrocellulose membranes. Validation of correct protein loading was done with ponceau staining of the membranes. Before the primary antibody incubations, membranes were blocked in 5% milk. Protein signals were detected on an Amersham Imager 600RGB (GE Healthcare) following the incubation of the membranes with the appropriate HRP-conjugated secondary antibodies and the Clarity Western ECL Substrate (Bio-Rad). The antibodies used in this study are M2-HRP (A8592, Sigma, 1/50,000), rabbit anti-FLAG (F7425, Sigma, 1/1000), PAK (SC-881, Santa Cruz, 1/200), p130cas/BCAR1 (SC-860, Santa Cruz, 1/200), actin (Cell Signaling Technology, 1/2000), anti-mouse HRP (Cell Signaling Technology, 1/10,000) and anti-rabbit HRP (Cell Signaling Technology, 1/10,000). The quantification of the WB signals was performed with the Amersham Imager 600 analysis software (GE Healthcare).

[3] = test system: NCK2; experiment: NCK2 phase separation with 1,6-hexanediol (Fig. S7C); format: biochemical, mouse; conditions: 0%, 5%, and 10% 1,6-hexanediol, 60 mM NaCl, n = 3
Procedure: (§1) Purified NCK2 proteins were diluted in GST buffer to identical concentrations. At 500 mM NaCl present in this buffer, all NCK2 constructs were completely soluble. Phase transition was initiated by dilution in imidazole buffer (10 mM imidazole (Bio Basic) pH 7.0, 1 mM DTT, 1 mM EGTA (Millipore Sigma), 1 mM MgCl2, 2.5% Glycerol (Bioshop Canada), 3% Dextran (Millipore Sigma)) containing various amount of NaCl so that the final concentration of NaCl would correspond to those in Supplementary Fig. 7B. For all the other experiments, the phase transition of NCK2 proteins was assessed at 60 mM NaCl. […] The pellets to supernatant fractions were used to quantify phase transition at 60 mM NaCl (7 replicates) via Coomassie protein quantification. The involvement of weak hydrophobic interactions in NCK2 driven phase transition was assessed using 1,6-Hexanediol (Millipore Sigma) at 60 mM NaCl. Imidazole buffer containing 0%, 1%, 5%, and 10% 1,6-Hexanediol was first prepared and phase transition was initiated and analyzed as described above. Finally, the competition of SH3-2 dependent homotypic NCK2 interaction with an SH3-2 binding peptide was assessed in the presence of 5, 15, 45, 90, 150, or 300 μM PAK1 peptide ([…]) in imidazole buffer with 60 mM NaCl. […]

[4] = test system: NCK2 interactome in HEK293T cells; experiment: AP-SWATH (DIA) quantitative MS of NCK2 PPIs (Fig. 5A-C); format: cell-based, human; conditions: SAINT FDR < 1%; duplicates
Procedure: Human embryonic kidney 293T cells (HEK293T, ATCC:CRL-3216) were grown in Dulbecco’s Modified Eagle’s medium (DMEM) high glucose complemented with 10% fetal calf serum under 5% CO2 at 37 °C. Transient expression of cDNA in cells was performed by polyethylenimine (PEI, Millipore Sigma) transfections. Enrichment of phospho-dependent PPIs was done by treating HEK293T cells with the tyrosine phosphatase inhibitor pervanadate, freshly made by mixing 4 mM orthovanadate (Millipore Sigma) with 30% H2O2 (Millipore Sigma) in water in a 200:1 volume ratio. […]
NCK2 baits purified on beads from HEK293T cells (as previously described in the methods) were washed two additional times in 20 mM Tris-HCl pH 7.4 and eluted in 50 mM phosphoric acid. […] These were analyzed alongside four negative controls corresponding to transiently expressed 3×FLAG-GFP purified from HEK293T cells (as described for NCK2 constructs). […] The equivalent of one-third of each sample was used for the SWATH-libraries generation and another third for SWATH quantification. […] We validated that the same quantity of baits was used for each NCK2 chimeras by quantifying NCK2 peptides in each sample (see Supplementary Data 3). […]

[5] = test system: NCK2; experiment: NCK2 phase separation with PAK1 peptide competition (Fig. S7A); format: biochemical, mouse; conditions: 5, 15, 45, 90, 150, or 300 μM peptide, 60 mM NaCl; phase contrast microscopy
Procedure: as §1

Compound	Interactions in Abp1 [1]	Ratio Swap/WT Flag [2]	Flag (2 bands) [2]	further results
Rvs167	91	0.1645	38158	
Cdc25	27	0.6887	152280	
OCCCCCCO [1,6-hexanediol]				Effect on NCK2 phase separation [3]: disrupts all NCK2 SH3-shuffled proteins in a similar manner
WT NCK2: wild-type NCK2 adaptor (mouse cDNA) with three SH3s and one SH2				High confidence NCK2 PPIs [4]: 56 PPIs
DIQDKPPAPPMRNTST [PAK1 peptide]				Effect on NCK2 phase separation [5]: Phase separation is inhibited

Reference: article PMC7954794, “Protein context shapes the specificity of SH3 domain-mediated interactions in vivo” (Nature Communications, 2021)
